US20080139449A1 (priority 2005, published 2008)

How the values were obtained:
FPPS [1] = biological target: T1, FPPS (Homo sapiens, UniProt P14324)
Target sequence in this assay (P14324 72-419): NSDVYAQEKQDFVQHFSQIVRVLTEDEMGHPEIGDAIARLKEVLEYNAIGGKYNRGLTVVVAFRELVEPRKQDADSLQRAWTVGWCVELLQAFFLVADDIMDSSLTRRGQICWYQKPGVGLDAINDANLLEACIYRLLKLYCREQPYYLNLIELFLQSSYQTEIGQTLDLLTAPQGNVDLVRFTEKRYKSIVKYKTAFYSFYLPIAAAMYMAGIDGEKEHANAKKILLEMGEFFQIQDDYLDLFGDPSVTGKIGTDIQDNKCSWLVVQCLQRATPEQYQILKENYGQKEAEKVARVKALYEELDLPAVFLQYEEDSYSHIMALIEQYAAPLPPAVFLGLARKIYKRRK

FPPS [2] = biological target: T1, FPPS; settings: with respect to allylic substrates and IPP; cited from earlier work
Target sequence in this assay (P14324 whole entry): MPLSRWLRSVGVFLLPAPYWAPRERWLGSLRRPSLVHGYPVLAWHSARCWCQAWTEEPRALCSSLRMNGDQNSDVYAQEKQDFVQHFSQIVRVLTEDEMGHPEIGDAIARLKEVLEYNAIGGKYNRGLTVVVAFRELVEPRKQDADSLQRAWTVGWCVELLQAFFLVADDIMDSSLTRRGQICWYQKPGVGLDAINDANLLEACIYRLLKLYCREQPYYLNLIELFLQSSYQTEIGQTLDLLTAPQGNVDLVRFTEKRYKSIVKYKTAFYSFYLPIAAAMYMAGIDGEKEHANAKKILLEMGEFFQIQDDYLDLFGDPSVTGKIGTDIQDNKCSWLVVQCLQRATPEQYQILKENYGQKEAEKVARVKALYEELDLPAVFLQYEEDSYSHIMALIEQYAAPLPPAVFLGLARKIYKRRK

## NCCC(O)(P(=O)(O)O)P(=O)(O)O [pamidronate]
FPPS [1]; FPPS dimer 60 μM, pamidronate 270 μM, Mg2+ 900 μM
  chemical shift changes in 15N,1H-TROSY spectrum upon ligand addition: almost all of the non-overlapping resonances experience chemical shift changes

## C=C(C)CCOP(=O)(O)OP(=O)(O)O [IPP, isopentenyl diphosphate]
FPPS [1]; IPP 400 μM added to FPPS/zoledronate/Mg2+ sample
  binding in the presence of zoledronate/Mg2+ (NMR): binds to FPPS even in the presence of zoledronate

## NCCCC(O)(P(=O)(O)O)P(=O)(O)O [alendronate]
FPPS [2]
  mode of FPPS inhibition: competitive with respect to allylic substrates but not IPP
